Read-outs that look alike come from different tables or passages of the source. Marks after values point to notes of the source that are not given here.

We go through three molecules from paper PMC12281485, “High-Throughput Screening of Potent Drug-like Molecules Targeting 17β-HSD10 for the Treatment of Alzheimer’s Disease and Cancer” (ACS Chemical Biology, 2025).

A short description of data set [1]: Mouse hepatocyte metabolic stability. Also on record: k (elimination constant): unit not given here. The following applies: mouse hepatocytes; for Heps category: metabolism category; for Cl (clearance): limits of quantitation 0.5 and 50; for half-life: read-out: T1/2 (half-life). Format: in vitro ADME. On the procedure: (§1) Hepatocyte isolation, hepatocyte incubations for metabolic stability, plasma protein binding (PPB) experiments, and LC/MS sample analysis were carried out as previously described in Brandon et al. and MacLeod et al.
XLfit (IDBS, UK) was used to calculate the exponential decay and the rate constant (k) from the ratio of the peak area of the test compound to the internal standard at each time point. […] Verapamil, 7-ethoxycoumarin, 7-hydroxycoumarin, and phthalazine were used as positive controls to confirm acceptable assay performance. […] Values were transferred to RStudio v1.3.1093 (Posit, Boston, MA, USA) for generation of scatter plots and heatmaps using the ggplot2 package (Wickham 2016).

Data set [2] has as its target T1, 17β-HSD10 (Homo sapiens, UniProt Q99714).
T1 construct: Recombinant 17β-HSD10 was expressed and purified as previously described in Aitken et al; made in house
T1 sequence (Q99714 1-261): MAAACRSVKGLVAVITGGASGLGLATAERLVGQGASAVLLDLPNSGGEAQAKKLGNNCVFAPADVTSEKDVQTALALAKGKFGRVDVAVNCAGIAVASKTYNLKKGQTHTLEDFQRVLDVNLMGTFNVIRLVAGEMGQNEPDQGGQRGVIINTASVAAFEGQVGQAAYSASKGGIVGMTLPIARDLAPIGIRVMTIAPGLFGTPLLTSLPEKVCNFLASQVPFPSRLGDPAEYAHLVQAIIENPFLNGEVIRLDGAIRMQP
Also on record: method as in Kissinger et al. The following applies: Table 5, ref Kissinger et al.; cited from earlier work.

Data set [3] addresses T1, 17β-HSD10. Nature of the data set: 17β-HSD10 enzyme inhibition dose-response assay (acetoacetyl-CoA/NADH, absorbance 340 nm). Format: biochemical. On the procedure:
Recombinant 17β-HSD10 was expressed and purified as previously described in Aitken et al.
17β-HSD10 screening was carried out as described in Aitken et al. with the exception that experiments were also conducted in clear-bottom 1536-well low-volume microplates (Corning) with a final assay volume of 20 μL. For primary screening, an endpoint assay format was adopted, in which an Echo acoustic liquid dispenser (Labcyte) was used to transfer 20 nL of either DMSO control […] or test compounds (10 μM) to the assay plate. 10 μL of the 17β-HSD10 enzyme in an assay buffer (2.5 nM) was then added to the plates using the Preddator liquid handling robot (Redd and Whyte), and plates were incubated at RT for 15 min. 10 μL of the substrate mixture (100 μM acetoacetyl-CoA and 100 μM NADH) was added with the Preddator. To start the reaction, the plates were left to incubate for 35 min at RT before the absorbance at 340 nm was read on the EnVision plate reader (PerkinElmer). For the kinetic assay format and dose-response follow-up experiments, the same protocol was adopted, except that the absorbance at 340 nm was monitored constantly for 45 min from immediately after the reaction was started.

Data set [4] deals with HEK293 cells overexpressing 17β-HSD10. Nature of the data set: LDH cytotoxicity assay. Format: cell-based, human. The following applies: 50 μM compound, 24 h, n = 3 ± SD. The procedure: Cell cytotoxicity was assessed via the measurement of LDH leakage into the culture medium using a commercially available kit from Pierce (Thermo Scientific cat no. 88953). This was carried out in accordance with the kit guidelines, with the activity of LDH being calculated from the change in absorbance at […]. Human embryonic kidney (HEK293) cells overexpressing 17β-HSD10 were cultured in phenol-red free media (10% FBS, 1 mM sodium pyruvate, 100 units penicillin, 0.1 mg mL^–1 streptomycin, and 2 mM L-glutamine) and seeded at a density of 10,000 cells per well (100 μL, 96-well plates). […] Treated cells were then incubated at 37 °C and CO2 (5%) for 24 h before the LDH assay was performed as per the manufacturer’s instructions. Spontaneous control (water) and maximum control (lysis buffer) were used in accordance with the kit guide. Absorbance was measured at 490 and 680 nm using the SpectraMaxM2e spectrophotometer. The measured LDH activity was used to calculate %cytotoxicity using the following equation (eq ): %cytotoxicity=(compoundtreatedLDHactivity−spontaneousLDHactivity)/(maximumLDHactivity−spontaneousLDHactivity)×100 1

Data set [5] in a line: Alamar Blue cell viability assay. Format: cell-based, human. The following applies: human, HEK293 cells overexpressing 17β-HSD10, 50 μM compound, n = 3 ± SD, read-out: Alamar Blue % viability (50 μM dose). On the procedure: Cell viability was assessed via fluorescence change using the commercially available Alamar Blue from ThermoFisher. HEK293 cells overexpressing 17β-HSD10 were cultured in phenol-red free media (10% FBS, 1 mM sodium pyruvate, 100 units penicillin, 0.1 mg mL^–1 streptomycin, and 2 mM L-glutamine) and seeded at a density of 10,000 cells per well (100 μL, 96-well plates). […] Treated cells were then incubated at 37 °C and CO2 (5%) for 24 h before the assay was performed as per the manufacturer’s instructions. Fluorescence was measured at 530 nm excitation and 590 nm emission using the SpectraMaxM2e spectrophotometer.

Data set [6] has as its target T1, 17β-HSD10. Briefly: (−)-CHANA fluorescence assay of cellular 17β-HSD10 activity. The following applies: read-out: cellular 17β-HSD10 activity mean pEC50 (converted). Type of data set: cell-based. On the procedure:
(−)–CHANA ((−)-cyclohexenyl amino naphthalene alcohol) is a fluorogenic probe that can be used to detect 17β-HSD10 activity in living cells. HEK293 17β-HSD10 cells were seeded at a density of 10,000 cells per well (100 μL, 96-well black plates) in phenol-red free media (10% FBS, 1 mM sodium pyruvate, 100 units penicillin, 0.1 mg mL^–1 streptomycin, and 2 mM L-glutamine). […] The fluorogenic probe (−)–CHANA was then added to each well to give a final assay concentration of 20 μM. Fluorescence was immediately measured using the FLUOstar Optima microplate reader (excitation = 380 nm, emission = 520 nm, orbital averaging = 3 mm), and the initial reaction was monitored for 3–4 h. EC50 was calculated from the control-subtracted triplicates using nonlinear regression (four parameters) of GraphPad Prism 5 software. The Final EC50 and SEM values were obtained as a mean of at least three independent measurements.

The nature of data set [7]: Mouse plasma protein binding. Type of data set: in vitro ADME. The following applies: read-out: mouse PPB (% free). The procedure: as §1
[8] abbreviates: Table 4, 17β-HSD10 overexpressing HEK293 cells, CHANA fluorescence assay.
Setting [9] is: Table 5, HEK293 17β-HSD10 cells, CHANA assay.

`O=C(C(c1ccccc1)n1cnc2[nH]ncc2c1=S)N1CCCCCC1` (centres unmarked) [AG18051, reference compound]: in data set [1], the “T1/2 (half-life)” value was 6.6 min, the “k (elimination constant)” value was 0.11, the Heps category result is “High” and the “Cl (clearance)” value is reported as >50 mL/min/g liver. In addition, the “mean 17β-HSD10 pIC50” value on 17β-HSD10 [2] is recorded as 7.04 ^b.
Turning to `Cc1ccc(C(=O)N(CC(C)C)c2cccc(N(C)Cc3c[nH]cn3)c2)c(F)c1` [ESC1002575], on 17β-HSD10 [3] (Table 2, chemically modified cluster hit compounds, read-out: 17β-HSD10 pIC50 (converted)), the IC50 is 0.269 µM. On 17β-HSD10 [3] (Table 5, read-out: mean 17β-HSD10 pIC50 (converted)), the IC50 is 0.269 µM. Besides, the “LDH % toxicity (50 μM dose)” value in data set [4] came to 4.78 ± 0.02%. Moreover, the viability at 24 h, 50 μM in data set [5] was 92.57 ± 0.47%. Further, the EC50 at 17β-HSD10 [6] (setting [8]) is 0.367 µM. The EC50 on 17β-HSD10 [6] (setting [9]) was 0.367 µM. In addition, in data set [1], the “k (elimination constant)” value worked out at 0.012, the Heps category result was “mod”, the “Cl (clearance)” value came out at 5.8 mL/min/g liver and the half-life was 57.2 min. Also, in data set [7], the fraction unbound stood at 0.076.
On to `O=C(c1sccc1Cl)N1CCC[C@H]1c1ccccc1-c1cc(O)ccc1F` [ESC1002842], for which, at 17β-HSD10 [3] (Table 3, chemically modified singleton hit compound series, read-out: 17β-HSD10 pIC50 (converted)), the IC50 was 0.0407 µM. The “LDH % toxicity (50 μM dose)” value in data set [4] stood at 5.90 ± 0.004%. For the same molecule, in data set [5], the viability at 24 h, 50 μM stood at 82.44 ± 0.32%. The EC50 at 17β-HSD10 [6] (setting [8]) is 0.04 µM. Besides, at 17β-HSD10 [6] (setting [9]), the EC50 is 0.04 µM. In data set [1], the “k (elimination constant)” value stood at 0.17, the Heps category result was “high”, the “Cl (clearance)” value is given as >50 mL/min/g liver and the half-life came out at 4 min. In data set [7], the fraction unbound amounted to 0.034.
